The text below walks through data of US9427428B2, “Benzimidazole-imidazole derivatives” (Janssen Sciences Ireland UC, priority 2009, dated 2016).

Where only a bound is given, the exact number is not on record here.

The test system of series [1] is HCV type 1b replicon (Huh-7 luc/neo cells). The experiment in a line: HCV replicon assay, stable transfection (Huh-Luc, luciferase). Type of series: cell-based. The settings on record: Hepatitis C virus, Huh-7, 72 h, three days incubation, average of all tests. The text has this: The compounds of formula (I) were examined for inhibitory activity in the HCV replicon. This cellular assay is based on a bicistronic expression construct, as described by Lohmann et al. (Science (1999) 285: 110-113; Journal of Virology (2003) 77: 3007-3019) with modifications described by Krieger et al. (Journal of Virology (2001) 75: 4614-4624), and Lohmann et al. (Journal of Virology (2003) 77: 3007-3019) for genotype 1b and by Yi et al. (Journal of Virology (2004) 78: 7904-7915) for genotype 1a, in a multi-target screening strategy.
The method was as follows. The assay utilized the stably transfected cell line Huh-7 luc/neo (hereafter referred to as Huh-Luc). This cell line harbors an RNA encoding a bicistronic expression construct comprising the wild type NS3-NS5B regions of HCV type 1b translated from an Internal Ribosome Entry Site (IRES) from encephalomyocarditis virus (EMCV), preceded by a reporter portion (FfL-luciferase), and a selectable marker portion (neoR, neomycine phosphotransferase). The construct is flanked by 5′ and 3′ NTRs (non-translated regions) from HCV type 1b. Continued culture of the replicon cells in the presence of G418 (neoR) is dependent on the replication of the HCV RNA. The stably transfected replicon cells that replicate HCV RNA autonomously and to high levels, encoding inter alia luciferase, were used for screening the antiviral compounds.
The replicon cells were plated in 384 well plates in the presence of the test and control compounds which were added in various concentrations. Following an incubation of three days, HCV replication was measured by assaying luciferase activity (using standard luciferase assay substrates and reagents and a Perkin Elmer ViewLux™ ultraHTS microplate imager). Replicon cells in the control cultures have high luciferase expression in the absence of any inhibitor. The inhibitory activity of the compound was monitored on the Huh-Luc cells, enabling a dose-response curve for each test compound. EC50 values were then calculated, which represent the amount of compound required to decrease the level of detected luciferase activity by 50%, or more specifically, to reduce the ability of the genetically linked HCV replicon RNA to replicate.
Where a compound of formula (I) was tested more than once in the replicon assay, the average of all test results is given in this Table 2.

The subject of series [2] is HCV genotype 1b Con1 replicon (Huh-7 lunet cells). The experiment in a line: HCV replicon assay, transient transfection, genotype 1b. It counts as cell-based. The settings on record: Hepatitis C virus, 48 h, genotype 1b Con1, two days incubation, luciferase. An excerpt: (§1) In a transient set-up, a Huh-7 lunet hepatoma cell line was transiently transfected with an autonomously replicating RNA encoding a bi-cistronic expression construct. This construct comprises a firefly luciferase reporter gene preceding the NS3-NS5B subgenomic region of HCV (genotype 1a H77 or 1b Con1). Translation of the HCV subgenomic region is mediated by an internal ribosome entry site of encephalomyocarditis virus. The construct is furthermore flanked by 5′ and 3′ untranslated regions of HCV (genotype 1a H77 or 1b Con 1, respectively), which allow for replication of the RNA.
(§2) Cells were plated in 384 well plates in the presence of test and control compounds, which were added in various concentrations. Following an incubation of two days, replication of the HCV subgenomic replicon RNA was measured by assaying luciferase activity (using standard luciferase assay substrates and reagents and a Perkin Elmer ViewLux™ ultraHTS microplate imager). HCV subgenomic replicon containing cells in the control cultures have high luciferase expression in the absence of any inhibitor. The inhibitory activity of the compound was monitored, enabling a dose-response curve for each test compound. EC50 values were then calculated, which represent the amount of compound required to decrease the level of detected luciferase activity by 50%, or more specifically, to reduce the ability of the genetically linked HCV subgenomic RNA to replicate.
(§3) Where a compound of formula (I) was tested more than once in the transient replicon assay, the average of all test results is given in Table 3.
In general terms: In antiviral work, replicon cells carry a viral genome segment that copies itself.

Series [3] has as its system HCV genotype 1a H77 replicon (Huh-7 lunet cells). The experiment in a line: HCV replicon assay, transient transfection, genotype 1a. Type of series: cell-based. The settings on record: Hepatitis C virus, 48 h, genotype 1a H77, two days incubation, luciferase.
From the text: as §1, §2, §3

Series [4] is described as follows: Counterscreen MT4-LTR-Luc. Type of series: cell-based. The settings on record: human. The text has this: (§4) Counterscreen cell lines included a Huh-7 hepatoma cell line containing a human cytomegalovirus major immediate-early promoter-Luc construct (Huh7-CMV-Luc) and an MT4 T-cell line containing a long terminal repeat-Luc reporter (MT4-LTR-Luc).
(A counterscreen serves to expose hits that act by an unwanted route or on another target.)

Series [5] in a line: Counterscreen Huh7-CMV-Luc. Type of series: cell-based. The settings on record: human.
From the text: as §4

In series [6] the test system is HCV genotype 1b replicon NS5A L28T. The experiment in a line: Transient HCV 1b replicon, NS5A mutant L28T. Type of series: cell-based. The settings on record: Hepatitis C virus, read-out: EC50 L28T.
From the text: as §1
(§5) In addition to the wild-type constructs, site-directed mutations were introduced into the transient HCV genotype 1b replicon in the gene encoding for the non-structural protein 5A (NS5A). More precisely, amino acid residues 28, 30, 31 and 93 in NS5A were independently altered.
as §2

Series [7] deals with HCV genotype 1b replicon NS5A R30H. The experiment in a line: Transient HCV 1b replicon, NS5A mutant R30H. Type of series: cell-based. The settings on record: Hepatitis C virus, read-out: EC50 R30H.
From the text: as §1, §5, §2

The test system of series [8] is HCV genotype 1b replicon NS5A L31F. The experiment in a line: Transient HCV 1b replicon, NS5A mutant L31F. It counts as cell-based. The settings on record: Hepatitis C virus, read-out: EC50 L31F.
From the text: as §1, §5, §2

Series [9] has as its system HCV genotype 1b replicon NS5A L31M. The experiment in a line: Transient HCV 1b replicon, NS5A mutant L31M. Type of series: cell-based. The settings on record: Hepatitis C virus, read-out: EC50 L31M.
From the text: as §1, §5, §2

The subject of series [10] is HCV genotype 1b replicon NS5A L31V. The experiment in a line: Transient HCV 1b replicon, NS5A mutant L31V. The settings on record: Hepatitis C virus, read-out: EC50 L31V. Type of series: cell-based.
From the text: as §1, §5, §2

Series [11] relates to HCV genotype 1b replicon NS5A Y93H. The experiment in a line: Transient HCV 1b replicon, NS5A mutant Y93H. It counts as cell-based. The settings on record: Hepatitis C virus, read-out: EC50 Y93H.
From the text: as §1, §5, §2

Series [12] relates to HCV genotype 1b replicon NS5A Y93C. The experiment in a line: Transient HCV 1b replicon, NS5A mutant Y93C. The settings on record: Hepatitis C virus, read-out: EC50 Y93C. It counts as cell-based.
From the text: as §1, §5, §2

Series [13] in a line: Pharmacokinetic analysis after single oral administration, liver concentration. Type of series: in vivo. The settings on record: male Sprague-Dawley rats, 10 mg/kg oral, solution in PEG400. How it is done: Compounds were dosed orally as a solution in PEG400 to male Sprague-Dawley rats at a dose level of 10 mg/kg. At serial time points, after dosing, the animals were sacrificed and liver samples collected. All samples were analyzed using a qualified research LC-MS/MS method to determine the concentration of the tested compounds in liver. Non-compartmental analysis using the lin/log trapezoidal rule was performed using WinNonlin™ Professional (Version 5.2.1).

The term EC50 denotes the concentration at which the effect is half-maximal. As usually defined, the CC50 is the concentration at which the toxic effect on the cells reaches its halfway point. Read a low CC50 as greater toxicity to the cells. In the case of `CC[C@H](C)[C@H](NC(=O)OC)C(=O)N1CCC[C@H]1c1nc2ccc(-c3ccc4cc(-c5cnc([C@@H]6CCCN6C(=O)[C@@H](NC(=O)OC)C(C)C)[nH]5)ccc4c3)cc2[nH]1` [Compound 13], the EC50 in [1] is 0.002 nM; in [2], 0.002 nM; in [3] it was 0.051 nM; in series [6] it was 0.109 nM; in series [7], 0.027 nM; in [8] it was below 0.013 nM. Moreover, the EC50 in [9] was 0.053 nM; in [10], 0.141 nM; in series [11], 0.215 nM; in [12], below 0.013 nM. Moreover, the CC50 in series [4] and in [5] was above 984 nM in each case. Moreover, the “Liver AUC” value in series [13] came out at 51330 ng·h/g.
